According to US7811577B2 (priority 2004, dated 2010):
“Also recorded” adds a separate entry of the source. Like-named read-outs stand apart in the source and are kept apart here. Numbered stars: 1 amine (or outer) side, 2 acyl side, 3 side chain; on linkers, the order of the positions; unused ones are H or OH. Bridge positions count the residues as written; N and C are the ends. Square brackets hold non-standard residues; d marks the D form. Ends that are not written are not given here. I, II: the chains in the order shown. * marks the point of attachment. Biotin = O=C1N[C@H]2[C@H](CS[C@H]2CCCCC(=O)*)N1; Ttds = O=C(CCC(=O)[*:2])NCCCOCCOCCOCCCN[*:1]; Acm = CC(=O)NC*

Legend:
[1] = system: D5 IgG binding to biotinylated 5-Helix; experiment: Biotinylated 5-Helix/D5 IgG interaction (competition) assay, AlphaScreen
From the text: The instrument records these emissions.
(§1) This test determines whether the covalently-stabilized, homotrimeric or heterotrimeric CC-chimeric N-peptides can preserve the structure of the internal, N-helix coiled-coil of gp41.

HIV-1 HXB2 = conditions: for anti-viral activity against HIV-1 HXB2, in words: single-cycle/single cell infectivity assay
[2] = Thermal denaturation (CD) in 2M guanidinium chloride; conditions: for melting temperature / midpoint of thermal denaturation: in the presence of 2M guanidinium chloride
Description: The stability of SZN17 was compared with that of IZN17 using thermal denaturation analysis performed in the presence of 2M guanidine hydrochloride (GdnHCl).

HIV-1 89.6 = type: cell-based
[3] = Circular dichroism spectroscopy and thermal denaturation without denaturant; type: physicochemical; conditions: for melting point (thermal denaturation): no denaturant
Description: The IZ-like scaffold in CCI10N17 (SEQ ID NO:20) comprises only the ten COOH-terminal residues of the “IZ” scaffold, with addition of the covalent trimerizing unit (CCGG (SEQ ID NO:28)) at the NH2-terminus of the peptide. The non-covalently-stabilized CCI10N17 coiled-coil (i.e., the coiled-coil formed under non-oxidizing conditions) was dissolved at neutral pH, and its secondary structure content was determined by circular dichroism spectroscopy (CD).
In order to understand the role of the covalent trimerizing unit (CCGG; SEQ ID NO:28), the CCI10N17 peptide was dissolved to permit air oxidation under the same conditions as previously shown for CCIZN17, to generate covalently-stabilized coiled-coil molecules, (CCI10N17)3. […] The trimer (CCI10N17)3 was analyzed by CD and denaturation studies for analysis of both its secondary structure content and stability. The helical content of this molecule was only 85% with a melting curve showing a low cooperatively profile and a low melting point of about 60° C.

[4] = system: D5 IgG binding to biotinylated-IZN17; experiment: Biotinylated-IZN17/D5 IgG interaction assay, AlphaScreen
From the text: The instrument records these emissions.
as §1

[5] = system: D5 IgG / biotinylated-IZN17; experiment: IC50 (nM)
From the text: Table printed on a drawing sheet, FIG. 6
Head of the field: IC50 (nM)
Wildtype IZN17 peptide was included as a positive control, previously shown to inhibit D5 binding in this assay.
First copying reader's note: The table stands beside a dose-response plot (Average Alpha Counts vs [Peptide]), which is not copied.

[6] = system: D5-IgG binding to biotinylated IQN17; experiment: Competition of D5-IgG binding to biotinylated IQN17, AlphaScreen
[7] = non-covalently-stabilized coiled-coil, neutral pH, 15 μM

(CCIZN11IZ)3: covalent disulfide trimer of CCIZN11IZ (CCGGIKKEIEAIKKEQEAIKKKIEAIEKLLQLTVWGIKQIKKEIEAI; also: disulfide-linked homotrimer)
D5 IgG binding in bio-5-Helix/D5 IgG interaction assay, in words [1]: binds D5 IgG
IC50 (HIV-1 HXB2; read-out: IC50 against HIV-1 HXB2, single-cycle infectivity assay, HXB2): 0.3 nM

(CCS10N17)3: covalent disulfide trimer of CCS10N17 (CCGGIEKKIEAIEKLLQLTVWGIKQLQARIL; also: disulfide-linked homotrimer)
anti-viral activity against HIV-1 HXB2, in words (HIV-1 HXB2): much lower potencies

(CCS17N17)3: covalent disulfide trimer of CCS17N17 (CCGGIEKKIEAIEKKIEAIEKLLQLTVWGIKQLQARIL; also: disulfide-linked homotrimer)
melting temperature / midpoint of thermal denaturation [2]: above 90 °C

Ac-IKKEIEAIKKEQEAIKKKIEAIEKLLQLTVWGIKQLQARIL-NH2 [IZN17, reference compound]
anti-viral activity against HIV isolate 89.6, in words (HIV-1 89.6): completely resistant towards IZN17
Anti-viral activity, IC50 (HIV-1 89.6; HIV strain 89.6): No
IC50 (HIV-1 BaL; BaL): 3.2 nM
Tm (2M GdnHCl), midpoint of thermal denaturation [2]: 61.5 °C
melting temperature / midpoint of thermal denaturation [2]: 61.5 °C
IC50 (HIV-1 HXB2; HXB2): 1.7 nM
helical content by circular dichroism [3, 7]: fully helical

Ac-LLQLTVWGIKQLQARILAIKKEIEAIKKEQEAIKKKIEAI-NH2 (C-terminus assumed) [N17IZ]
IC50 (HIV-1 HXB2; HXB2): 800 nM

Biotin-GGIKKEIEAIKKEQEAIKKKIEAIEKEIEAQQHLLQLTVWGIKQLQARIL-NH2 [Biotin-IZN23]
IC50 (HIV-1 HXB2; HXB2): 2.17 nM

CCGGIEKKIEEIEKKIEEIEKKIEEIEKLLQLTVWGIKQLQARIL [CCEZN17]
D5 IgG binding in bio-5-Helix/D5 IgG interaction assay, in words [1]: interact with D5 IgG
D5 IgG binding in bio-IZN17/D5 IgG interaction assay, in words [4]: interact with D5 IgG
anti-viral activity against HIV-1 HXB2, in words (HIV-1 HXB2): lack of anti-viral activity

CCGGIKKEIEAIKKEQEAIKKKIEAIEKLLQLTVWGIKALAAAIA [CCIZN17Ala4]
anti-viral activity against HIV-1 HXB2, in words (HIV-1 HXB2): retain anti-viral activity

CCGGIKKKIEAIEKLLQLTVWGIKQLQARIL [CCI10N17, shortened IZ scaffold]
anti-viral activity against HIV-1 HXB2, in words (HIV-1 HXB2): less potent anti-virals
helical content by circular dichroism [3, 7]: 61%

I: Ac-CCGGIKKKIEAIEKLLQLTVWGIKQLQARIL-NH2 / II: Ac-CCGGIKKKIEAIEKLLQLTVWGIKQLQARIL-NH2 / III: Ac-CCGGIKKKIEAIEKLLQLTVWGIKQLQARIL-NH2 (disulfide I:1-III:2, I:2-II:2, II:1-III:1; C-terminus assumed) [(CCI10N17)3]
D5 IgG binding in bio-5-Helix/D5 IgG interaction assay, in words [1]: competes for binding of D5 IgG to Biotin-5-Helix
D5 IgG binding in bio-IZN17/D5 IgG interaction assay, in words [4]: somewhat less effective than 112N7; also recorded: clearly inhibits
fold less potent (IC50) than (CCIZN17)3 (HIV-1 HXB2): approximately 150 fold
IC50 (HIV-1 HXB2; HXB2): 24 nM
fold reduction in anti-viral activity relative to IZN17 (HIV-1 HXB2; HXB2): approximately 10 fold
anti-viral activity against HIV-1 HXB2, in words (HIV-1 HXB2): less potent in anti-viral activity assays
helical content by circular dichroism [3]: 85%
melting point (thermal denaturation) [3]: about 60 °C
melting point (thermal denaturation) ([3]; listed as (CC110N17)3): 60 °C

IEKKIEAIEKKIEAIEKKIEAIEKLLQLTVWGIKQLQARIL [SZN17]
melting temperature / midpoint of thermal denaturation [2]: > 90 °C
IC50 (HIV-1 HXB2; read-out: IC50 in single-cell infectivity assay, against HIV BXB2 (so in the source), unit inferred): 1.5 nM

IEKKIEEIEKKIEEIEKKIEEIEKLLQLTVWGIKQLQARIL [EZN17, EZ scaffold fused to N17] [listing 1 of 2 here]
IC50 [5]: 18.3 nM

IEKKIEEIEKKIEEIEKKIEEIEKLLQLTVWGIKQLQARIL [EZN17, EZ scaffold fused to N17] [listing 2 of 2 here]
D5 IgG binding in bio-5-Helix/D5 IgG interaction assay, in words [1]: interact with D5 IgG
D5 IgG binding in bio-IZN17/D5 IgG interaction assay, in words [4]: strongly binds to D5 IgG; also recorded: interact with D5 IgG; also recorded: affinity comparable to IZN17
helical content by circular dichroism [3]: fully helical

IKKEIEAIKKEQEAIKKKIEAIEKLLQLTVWGIKQLQARIa (Ac-IKKEIEAIKKEQEAIKKKIEAIEKLLQLTVWGIKQLQARIA-NH2; not fully specified (residue 41)) [IZN17A17]
Tm (2M GdnHCl), midpoint of thermal denaturation [2]: 60.6 °C

IKKEIEAIKKEQEAIKKKIEAIEKLLQLTVWGIKQLQAaIL (Ac-IKKEIEAIKKEQEAIKKKIEAIEKLLQLTVWGIKQLQAAIL-NH2; not fully specified (residue 38); printed as IKKEIEAIKKEQEAIKKKIEAIEKLLQLTVWGIKQLQAaIL) [IZN17A15]
Tm (2M GdnHCl), midpoint of thermal denaturation [2]: 77.2 °C

IKKEIEAIKKEQEAIKKKIEAIEKLLQLTVWGIKaLQARIL (Ac-IKKEIEAIKKEQEAIKKKIEAIEKLLQLTVWGIKALQARIL-NH2; not fully specified (residue 35); printed as IKKEIEAIKKEQEAIKKKIEAIEKLLQLTVWGIKaLQARIL) [IZN17A11]
Tm (2M GdnHCl), midpoint of thermal denaturation [2]: 66.0 °C

IKKEIEAIKKEQEAIKKKIEAIEKLLQLTVWGIaQLQARIL (Ac-IKKEIEAIKKEQEAIKKKIEAIEKLLQLTVWGIAQLQARIL-NH2) [IZN17A10]
competition of D5-IgG binding to biotinylated IQN17, in words [6]: completely abolish binding of D5
Tm (2M GdnHCl), midpoint of thermal denaturation [2]: 68.1 °C

IKKEIEAIKKEQEAIKKKIEAIEKLLQLTVaGIKQLQARIL (Ac-IKKEIEAIKKEQEAIKKKIEAIEKLLQLTVAGIKQLQARIL-NH2) [IZN17A7]
competition of D5-IgG binding to biotinylated IQN17, in words [6]: completely abolish binding of D5
Tm (2M GdnHCl), midpoint of thermal denaturation [2]: 61.4 °C

IKKEIEAIKKEQEAIKKKIEAIEKLLQLTaWGIKQLQARIL (Ac-IKKEIEAIKKEQEAIKKKIEAIEKLLQLTAWGIKQLQARIL-NH2) [IZN17A6]
Tm (2M GdnHCl), midpoint of thermal denaturation [2]: 56.4 °C

IKKEIEAIKKEQEAIKKKIEAIEKLLQaTVWGIKQLQARIL (Ac-IKKEIEAIKKEQEAIKKKIEAIEKLLQATVWGIKQLQARIL-NH2) [IZN17A4]
competition of D5-IgG binding to biotinylated IQN17, in words [6]: completely abolish binding of D5
Tm (2M GdnHCl), midpoint of thermal denaturation [2]: 58.2 °C

IKKEIEAIKKEQEAIKKKIEAIEKLLaLTVWGIKQLQARIL (Ac-IKKEIEAIKKEQEAIKKKIEAIEKLLALTVWGIKQLQARIL-NH2) [IZN17A3]
Tm (2M GdnHCl), midpoint of thermal denaturation [2]: 64.7 °C

IKKEIEAIKKEQEAIKKKIEAIEKaLQLTVWGIKQLQARIL (Ac-IKKEIEAIKKEQEAIKKKIEAIEKALQLTVWGIKQLQARIL-NH2) [IZN17A1]
Tm (2M GdnHCl), midpoint of thermal denaturation [2]: 51.7 °C

IKKEIEAIKKEQEATKKKIEAIEKLLQLTVWGIKQLaARIL [IZN17A13]
Tm (2M GdnHCl), midpoint of thermal denaturation [2]: 71.5 °C

IKKKIEAIEKLLQLTVWGIKQLQARILGGCC [I10N17CC]
anti-viral activity against HIV-1 HXB2, in words (HIV-1 HXB2): less potent anti-virals

ac-C(Acm)(thioE10N17)3: one ac-C(Acm)Ttds-CCE10N17 ligated via two thioether bonds to two acetyl-GGGE10N17 chains (peptide 1 {CH2CO}-C(Acm)[Ttds]CCIEEKIEEIEELLQLTVWGIKQLQARIL; peptide 2 Ac-GGGIEEKIEEIEELLQLTVWGIKQLQARIL; thioether I:N-I:3, I:N-I:4; numbers in words are those of the source; also: chain 2 present twice, each copy ligated via thioether to one of the two Cys of chain 1)
melting temperature / midpoint of thermal denaturation [2]: above 90 °C
anti-viral activity against HIV-1 HXB2, in words (HIV-1 HXB2): much lower potencies

enfuvirtide
IC50 (HIV-1 89.6; HIV strain 89.6, read-out: Anti-viral activity, IC50): 29 nM
IC50 (HIV-1 BaL; read-out: Anti-viral activity, IC50, HIV strain BaL): 2.4 nM
IC50 (HIV-1 HXB2; read-out: Anti-viral activity, IC50, HIV strain HXB2): 5.3 nM

B1: ac-C(Acm)(thioIZN17)3: one ac-C(Acm)Ttds-CCIZN17 chain ligated via two thioether bonds to two acetyl-GGGIZN17 chains (peptide)
peptide 1: CCCGGIKKEIEAIKKEQEAIKKKIEAIEKLLQLTVWGIKQLQARIL
peptide 2: GGGIKKEIEAIKKEQEAIKKKIEAIEKLLQLTVWGIKQLQARIL
anti-viral activity against HIV-1 HXB2, in words (HIV-1 HXB2): comparable antiviral activity to (CCIZN17)3
